This note sets out measurements from patent US7419780B2, “Methods and assays for screening protein targets” (The Trustees of Columbia University in the City of New York, priority 2000, dated 2008).

Holding throughout (assay type): cell-based, S. cerevisiae
Holding throughout (conditions): 1 uM small molecule, difference to activity without small molecule, average of two trials

Assay [1] addresses T1, LexA (GSG)2eDHFR / B42 (GSG)rGR2 (UniProt P06536+P0ABQ4, C656G/F620S).
T1 construct: rat Glucocorticoid Receptor (aa 524-795) with point mutations; expressed in transfected cells; host or cells: S. cerevisiae FY250
T1 sequence (P0ABQ4 1-159): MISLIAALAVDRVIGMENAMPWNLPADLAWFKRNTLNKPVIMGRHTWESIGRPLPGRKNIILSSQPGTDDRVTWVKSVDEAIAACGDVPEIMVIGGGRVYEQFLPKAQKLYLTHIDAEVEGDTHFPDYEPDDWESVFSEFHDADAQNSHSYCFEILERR
T1 sequence (P06536 524-795 F620S/C656G limits assumed): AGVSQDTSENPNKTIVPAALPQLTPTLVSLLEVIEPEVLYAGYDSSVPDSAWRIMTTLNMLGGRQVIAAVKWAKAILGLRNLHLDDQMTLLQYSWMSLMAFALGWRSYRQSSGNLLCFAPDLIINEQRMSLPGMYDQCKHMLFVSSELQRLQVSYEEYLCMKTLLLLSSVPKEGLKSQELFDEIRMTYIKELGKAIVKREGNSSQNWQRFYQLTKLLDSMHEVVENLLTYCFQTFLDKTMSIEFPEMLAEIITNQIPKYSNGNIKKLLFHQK
Description: β-galactosidase activity assay, strain V501Y. An excerpt:
(§1) Table III explains the components of each strain. Each strain was constructed from the parent yeast strain FY250 and also contains the pMW106 plasmid, which has the LacZ reporter gene that is turned on only in when the LexA DNA binding domain and the B42 activation are brought in tot he vicinity of each other. We use several different strains because we use DHFR from two different species, mDHFR is from murine, while eDHFR is from E. coli. We are asl oable to switch the small moleculebinding domains. For example, the strain containing LexA-eDHFR with B42-rGH2 is a different strain and behaves differently from the strain containing LexA-rGR2 with B42-eDHFR. We also put in short 6 amino acid linkers between the two domains of our protein chimeras and thus these are different strain as well.
(§2) The results in Table IV are averages of two separate trials. Each strain was examined with small molecules and without small molecules. The absolute activity is given as the β-galactisidase activity […]. The average β-galactosidse activity for a strain without small molecule (i.e. the negative control) was about 100 β-galactosidase units.

The target in a further assay is T2, LexA rGR2 / B42 mDHFR (UniProt P00375+P06536, C656G/F620S).
T2 construct: rat Glucocorticoid Receptor (aa 524-795) with point mutations; expressed in transfected cells; host or cells: S. cerevisiae FY250
T2 sequence (P06536 524-795 F620S/C656G limits assumed): T1 sequence (P06536 524-795 F620S/C656G limits assumed)
T2 sequence (P00375 1-187): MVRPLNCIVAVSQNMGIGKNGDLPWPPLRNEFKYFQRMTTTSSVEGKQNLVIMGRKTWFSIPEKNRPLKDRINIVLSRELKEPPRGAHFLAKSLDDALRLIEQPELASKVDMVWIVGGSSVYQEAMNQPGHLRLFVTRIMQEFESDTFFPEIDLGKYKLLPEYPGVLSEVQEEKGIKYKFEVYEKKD
Nature of the assay: β-galactosidase activity assay, strain V507Y.
Source text: as §1, §2

Assay [2] deals with T3, LexA (GSG)2rGR2 / B42 (GSG)2mDHFR (UniProt P00375+P06536, C656G/F620S).
T3 construct: rat Glucocorticoid Receptor (aa 524-795) with point mutations; expressed in transfected cells; host or cells: S. cerevisiae FY250
T3 sequence (P06536 524-795 F620S/C656G limits assumed): T1 sequence (P06536 524-795 F620S/C656G limits assumed)
T3 sequence (P00375 1-187): T2 sequence (P00375 1-187)
Nature of the assay: β-galactosidase activity assay, strain V512Y.
Source text: as §1, §2

The target of assay [3] is T4, LexA (GSG)2mDHFR / B42 (GSG)rGR2 (UniProt P00375+P06536, C656G/F620S).
T4 construct: rat Glucocorticoid Receptor (aa 524-795) with point mutations; expressed in transfected cells; host or cells: S. cerevisiae FY250
T4 sequence (P00375 1-187): T2 sequence (P00375 1-187)
T4 sequence (P06536 524-795 F620S/C656G limits assumed): T1 sequence (P06536 524-795 F620S/C656G limits assumed)
Nature of the assay: β-galactosidase activity assay, strain V504Y.
Source text: as §1, §2

A further assay deals with T5, LexA mDHFR / B42 rGR2 (UniProt P00375+P06536, C656G/F620S).
T5 construct: rat Glucocorticoid Receptor (aa 524-795) with point mutations; expressed in transfected cells; host or cells: S. cerevisiae FY250
T5 sequence (P00375 1-187): T2 sequence (P00375 1-187)
T5 sequence (P06536 524-795 F620S/C656G limits assumed): T1 sequence (P06536 524-795 F620S/C656G limits assumed)
Description: β-galactosidase activity assay, strain V495Y.
Source text: as §1, §2

For assay [4], the target named is T6, LexA (GSG)2eDHFR / B42 rGR2 (UniProt P06536+P0ABQ4, C656G/F620S).
T6 construct: rat Glucocorticoid Receptor (aa 524-795) with point mutations; expressed in transfected cells; host or cells: S. cerevisiae FY250
T6 sequence (P0ABQ4 1-159): T1 sequence (P0ABQ4 1-159)
T6 sequence (P06536 524-795 F620S/C656G limits assumed): T1 sequence (P06536 524-795 F620S/C656G limits assumed)
Nature of the assay: β-galactosidase activity assay, strain V498Y.
Source text: as §1, §2

Assay [5] has as its target T7, LexA (GSG)2mDHFR / B42 rGR2 (UniProt P00375+P06536, C656G/F620S).
T7 construct: rat Glucocorticoid Receptor (aa 524-795) with point mutations; expressed in transfected cells; host or cells: S. cerevisiae FY250
T7 sequence (P00375 1-187): T2 sequence (P00375 1-187)
T7 sequence (P06536 524-795 F620S/C656G limits assumed): T1 sequence (P06536 524-795 F620S/C656G limits assumed)
Description: β-galactosidase activity assay, strain V502Y.
Source text: as §1, §2

Assay [6] addresses T8, LexA (GSG)2rGR2 / B42 mDHFR (UniProt P00375+P06536, C656G/F620S).
T8 construct: expressed in transfected cells; host or cells: S. cerevisiae FY250 with pMW106 lacZ reporter
T8 sequence (P06536 524-795 F620S/C656G limits assumed): T1 sequence (P06536 524-795 F620S/C656G limits assumed)
T8 sequence (P00375 1-187): T2 sequence (P00375 1-187)
Description: β-galactosidase activity assay, strain V508Y.
Source text: as §1, §2

Another assay has as its target T9, LexA eDHFR / B42 rGR2 (UniProt P06536+P0ABQ4, C656G/F620S).
T9 construct: rat Glucocorticoid Receptor (aa 524-795) with point mutations; expressed in transfected cells; host or cells: S. cerevisiae FY250
T9 sequence (P0ABQ4 1-159): T1 sequence (P0ABQ4 1-159)
T9 sequence (P06536 524-795 F620S/C656G limits assumed): T1 sequence (P06536 524-795 F620S/C656G limits assumed)
Description: β-galactosidase activity assay, strain V493Y.
Source text: as §1, §2

For assay [7], the target named is T10, LexA (GSG)2rGR2 / B42 eDHFR (UniProt P06536+P0ABQ4, C656G/F620S).
T10 construct: expressed in transfected cells; host or cells: S. cerevisiae FY250 with pMW106 lacZ reporter
T10 sequence (P06536 524-795 F620S/C656G limits assumed): T1 sequence (P06536 524-795 F620S/C656G limits assumed)
T10 sequence (P0ABQ4 1-159): T1 sequence (P0ABQ4 1-159)
Nature of the assay: β-galactosidase activity assay, strain V506Y.
Source text: as §1, §2

Turning to `C[C@@H]1C[C@H]2C3CCC4=CC(=O)C=C[C@]4(C)[C@@]3(F)[C@@H](O)C[C@]2(C)[C@@]1(O)C(=O)NCCSCCCCCCCCCCSCC[C@H](NC(=O)c1ccc(N(C)Cc2cnc3nc(N)nc(N)c3n2)cc1)C(=O)O` (stereo partly shown) [D10M], the B-gal activity is on record as 2286 β-galactosidase units in assay [1]; −14 β-galactosidase units on LexA rGR2 / B42 mDHFR; 6 β-galactosidase units in assay [2]; 556 β-galactosidase units in assay [3]; 513 β-galactosidase units on LexA mDHFR / B42 rGR2; 2926 β-galactosidase units in assay [4]. Also, the B-gal activity in [5] is given as 497 β-galactosidase units; in assay [6] it was 5 β-galactosidase units; at LexA eDHFR / B42 rGR2, 5812 β-galactosidase units; in assay [7], 2561 β-galactosidase units.
